# Experimental data as given in patent US20260183303A1, “PDK1 REGULATORY COMPOUND AND COMPOSITION CONTAINING THE SAME” (PROVIBIO CO., LTD., priority 2024, published 2026).
# Tests used:
# [1] = biological target: T1, PDK1 (phosphoinositide-dependent kinase 1) phosphorylation (Homo sapiens, UniProt O15530); assay: PDK1 phosphorylation (pPDK1-PE) by flow cytometry in SU-DHL-8 cells; type: cell-based; settings: 24 hours, compared to the control group
# T1 construct: endogenous in cells; host or cells: SU-DHL-8 (ATCC CRL-2961)
# T1 sequence (O15530 1-556): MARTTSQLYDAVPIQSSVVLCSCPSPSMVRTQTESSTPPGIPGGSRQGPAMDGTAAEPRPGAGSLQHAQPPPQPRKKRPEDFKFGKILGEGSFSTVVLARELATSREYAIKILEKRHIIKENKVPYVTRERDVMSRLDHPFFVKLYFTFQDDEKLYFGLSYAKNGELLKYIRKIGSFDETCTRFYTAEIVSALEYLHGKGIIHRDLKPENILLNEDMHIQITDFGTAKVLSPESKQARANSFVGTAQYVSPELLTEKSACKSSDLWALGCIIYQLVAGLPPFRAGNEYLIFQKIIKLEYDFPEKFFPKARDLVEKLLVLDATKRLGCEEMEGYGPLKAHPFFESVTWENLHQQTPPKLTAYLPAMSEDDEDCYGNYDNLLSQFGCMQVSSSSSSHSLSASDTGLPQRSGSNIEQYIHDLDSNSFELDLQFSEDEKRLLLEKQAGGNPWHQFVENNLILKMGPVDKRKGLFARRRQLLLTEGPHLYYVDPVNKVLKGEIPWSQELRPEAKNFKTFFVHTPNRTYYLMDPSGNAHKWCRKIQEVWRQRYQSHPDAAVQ
# Procedure: After stabilizing the cells, the compound of the present invention was added, and the cells were cultured for 24 hours.
# After drug treatment, the cells were harvested, and the Fc receptor blocking process was performed. The cells were then fixed and permeabilized using the Intracellular Staining Kit (Cat. No. BD554715) from BD Biosciences. Subsequently, the intracellular pPDK1 was stained using the pPDK1-PE fluorescently labeled antibody (BD Biosciences).
# Referring to the figure, the vertical axis represents the phosphorylation level of PDK1 (phospho-PDK1 expression level), and the horizontal axis denotes the concentration-dependent treatment conditions of each compound.
# [2] = test system: MRL/lpr mice with hair loss symptoms in the facial region; assay: Hair loss treatment and hair follicle Ki-67 IHC in MRL/lpr mice; type: in vivo; settings: 41-week-old female MRL/lpr mice; GO15F (30 mg/kg), G048 (1 mg/kg), G088 (0.5 mg/kg) intraperitoneally once daily
# Procedure: Additionally, in 41-week-old female MRL/lpr mice, the compounds GO15F (30 mg/kg), G048 (1 mg/kg), and G088 (0.5 mg/kg) were administered intraperitoneally once daily.
# To confirm the proliferative activity of hair follicle cells in the skin tissue of these mice, the mice were sacrificed 14 days after administration of the compounds of the present invention, and Ki-67 immunohistochemistry […] was performed.
# For this purpose, the excised skin tissue was fixed in formalin, embedded in paraffin blocks, and stained with a Ki-67-specific antibody on tissue sections prepared as slides.
# [3] = test system: MRL/MpJ-Faslpr/J (MRL/lpr) lupus animal model; assay: Systemic lupus erythematosus model, MRL/lpr mice; type: in vivo
# Source text: The MRL/MpJ-Faslpr/J (hereinafter referred to as “MRL/lpr”) used in this experiment is one of the representative animal models for systemic lupus erythematosus (SLE), known to produce various autoantibodies, including antinuclear antibodies, due to the lpr (lymphoproliferation) gene.
# Generally, female MRL/lpr develop systemic lupus erythematosus around 12 weeks of age, and approximately 50% of the animals die by 30 weeks of age.
# In this invention, the period up to 9 weeks of age was considered the pre-disease stage, and the period after 23 weeks of age was considered the post-disease stage, and efficacy verification experiments using this model were conducted.
# To obtain experimental animals, female MRL/lpr mice aged 6 weeks were imported from The Jackson Laboratory, and MRL/lpr mice were imported from The Jackson Laboratory and acclimatized for one week in an SPF (Specific Pathogen Free) facility maintained at a temperature of 21-24° C., humidity of 40-60%, and a 12-hour light-dark cycle (lights on at 7:00 AM, lights off at 7:00 PM).
# Subsequently, female and male MRL/lpr mice were mated at a ratio of 2:1 in the same facility, and the female offspring were administered the compound G015F of the present invention or vehicle at a dose of 30 mg/kg once daily via intraperitoneal injection or oral administration from the age of 10 weeks until 23 weeks of age.
# Urine samples were collected once a week from each individual and used for analytical experiments.
# At 23 weeks of age, necropsy was performed on each MRL/lpr mouse, and serum, kidneys, and spleens were isolated and used for analytical experiments.
# The protein concentration in urine collected weekly from the control group or experimental group was analyzed using ‘Quick Start™ Bradford 1× Dye Reagent (Bio-Rad, Cat. #5000205).’
# In each well of a 96-well plate, 5 μl of urine sample diluted with triple-distilled water and 250 μl of 1× dye reagent were added, reacted, and the absorbance was measured at 595 nm.
# The concentration of anti-nuclear antibodies (Anti-dsDNA Ab) was measured using the ‘Mouse Anti-dsDNA IgG ELISA Kit (Alpha Diagnostic International, Cat. #5120)’ on serum isolated at the time of necropsy in the lupus animal model.
# Each mouse serum was diluted to a final concentration of 1/5000 with Working Sample Diluent (WSD) and Low NSB Sample Diluent (LNSD), followed by adding 100 μl of the diluted serum to wells coated with anti-dsDNA and incubating at room temperature for 60 minutes.
# The wells were then washed four times with 200 μl of washing buffer, followed by the addition of 100 μl of Anti-Mouse IgG-HRP antibody, and the mixture was incubated at room temperature for 30 minutes.
# Each well was washed four times with 200 μl of washing buffer, and 100 μl of 3,3′,5,5′-Tetramethylbenzidine (TMB) substrate solution was added to each well.
# The degree of color change to blue in the wells containing the standard solution was checked, and after 15 minutes, 100 μl of stop solution was added to terminate the reaction.
# After the reaction was complete, the optical density (OD) was measured at 450 nm. […]
# After that, each well was washed twice with 400 μl of washing solution, and 100 μl of TMB substrate solution was added to each well.
# The degree of color change to blue in the wells containing the standard solution was checked, and after 15 minutes, 100 μl of stop solution was added to stop the reaction.
# To investigate the effect of G015F administration on changes in the ratio of immune cells in the spleen of a lupus animal model, the spleens of mice administered each compound were excised, cells were extracted, and the cells were suspended in MACS buffer (autoMACS Washing Solution, Miltenyi Biotec., Cat. #130-092-987).
# For flow cytometry analysis, FACS tubes (5 mL round tubes, Falcon, Cat. #352052)were used. […]
# [4] = test system: bleomycin-induced pulmonary fibrosis mice; assay: Pulmonary fibrosis model induced by bleomycin intratracheal administration; type: in vivo, Balb/c mice; settings: BLM mice, vs BLM-treated group
# Source text: To evaluate the therapeutic efficacy of the compound according to the present invention against pulmonary fibrosis, an animal model of pulmonary fibrosis induced by bleomycin intratracheal administration was established.
# For this purpose, 8-week-old male Balb/c mice were subjected to general anesthesia using an inhalation anesthetic (2-3% isoflurane in oxygen), followed by disinfection of the neck region, skin incision, and exposure of the trachea.
# Bleomycin (Sigma-Aldrich, USA)was directly administered into the trachea at a concentration of 5 mg/kg in a solution of […].
# Two days prior to Bleomycin administration, the compound of the present invention or the comparative drug was administered intraperitoneally at the specified concentration and dose, and the administration was continued once daily for a total of 14 days.
# The experimental groups included Normal, Bleomycin alone (BLM), and BLM plus the compound of the present invention (BLM+G088, 0.2 mg/kg).
# Ten days later, the mice were euthanized humanely using carbon dioxide gas, the trachea was incised, and PBS was injected into the trachea to remove blood from the lungs.
# The lung tissue washed with PBS was excised, fixed in 4% paraformaldehyde solution for 24 hours, and then paraffin blocks and tissue sections were prepared. The prepared sections were subjected to pathological analysis using H&E, Masson's trichrome, and Sirius red staining.
# Additionally, immunohistochemical (IHC) staining was performed for α-SMA (α-smooth muscle actin), an indicator of lung fibroblast activation.
# [5] = test system: human lung fibroblasts MRC-5 cell lines; assay: Collagen I Western blot in TGF-β treated MRC-5 cells; type: cell-based; settings: MRC-5, TGF-β (5 ng/ml), G088 0.5 μM and 1 M (so in the source), 24 hours
# Procedure: To confirm that the compound of the present invention directly acts on fibrosis-related mechanisms, in vitro experiments were performed using human lung fibroblasts MRC-5 cell lines (Korea Cell Bank).
# First, MRC-5 cells were seeded at 5×10^3 cells per well in a 6-well plate and stabilized for 24 hours.
# Subsequently, experimental groups were established, including a control group, a group treated with TGF-β (5 ng/ml) alone, and groups treated with TGF-β and the compound G088 from the present invention at concentrations of 0.5 μM and […], respectively.
# After treating each group with the drugs for 24 hours, the cell medium was removed, and the cells were washed twice with cold PBS. Then, RIPA lysis buffer containing phosphatase inhibitor and protease inhibitor was added to each group to extract proteins.
# The extracted proteins were incubated at 4° C. for 30 minutes, then centrifuged at 13,000 rpm for 15 minutes, and the supernatant was collected. The total protein concentration was measured using the BCA protein quantification method.
# Subsequently, the proteins were separated by SDS-PAGE, transferred to a PVDF membrane, and Western blot analysis was performed.
# The expression levels of Collagen I, a marker related to pulmonary fibrosis, were confirmed, with GAPDH used as an internal control.
# [6] = biological target: T2, full-length PDK1 (PDK1-FL) (Homo sapiens, UniProt O15530); assay: Binding affinity by Microscale Thermophoresis (MST), full-length PDK1; settings: ratio of Kd values
# T2 construct: full-length (PDK1-FL) protein of human-derived PDK1; made in house; host or cells: Sf9 insect cells, baculovirus
# T2 sequence (O15530 1-556): T1 sequence (O15530 1-556)
# Procedure: Experimental Example 16: Binding affinity experiment with PDK1 using MST Microscale Thermophoresis (MST) analysis was performed to quantitatively measure the binding affinity between PDK1 protein and substrate peptides (PDKTide) or the company-developed low-molecular-weight compound (GO88).
# The target proteins were the full-length (PDK1-FL) protein of human-derived PDK1 and the Protein Kinase Domain (PKD) fragment, which were expressed using a baculovirus expression system in insect cell lines (Sf9).
# The purity of the purified proteins was confirmed by SDS-PAGE and Coomassie Brilliant Blue staining.
# The purified protein was labeled with a fluorescent label using the Monolith NT™ RED-NHS Protein Fluorescent Labeling Kit (NanoTemper).
# Specifically, 20 μM of the protein was dissolved in PBS (pH 7.4) buffer, mixed with the fluorescent reagent, and reacted at room temperature under dark conditions for 30 minutes. The mixture was then buffered with MST analysis buffer (50 mM HEPES, 150 mM NaCl, 1 mM DTT, 0.05% Tween-20, pH 7.5). […]
# The reaction samples were injected into an MST-specific capillary (NanoTemper) and analyzed using a Monolith NT.115 device (NanoTemper) under laser intensity conditions. […]
# The measured data were analyzed using MO.Affinity Analysis software (NanoTemper), and the dissociation constant (Kd) was calculated from the binding curve.
# [7] = serum at necropsy (23 weeks), ELISA
SMILES,phospho-PDK1 expression level (inhibition of PDK1 phosphorylation) [1],hair growth on the facial region [2],"protein concentration in urine ([3]; 30 mg/kg once daily, weekly urine, Bradford)","renal pathological tissue staining (glomeruli) ([3]; H&E, PAS, Masson trichrome)","B cells, T cells and macrophages in the spleen ([3]; flow cytometry (B220, CD3, CD11b/F4/80))",IgG deposition in kidney tissue ([3]; immunofluorescence staining),"concentration of anti-dsDNA IgG in the blood [3, 7]","total IgG concentration in the blood [3, 7]","collagen deposition (Masson's trichrome, Sirius red) [4]",expression of α-SMA in lung tissue (IHC) [4],protein expression of Collagen I [5],binding affinity of full-length PDK1 compared to the PDK fragment [6]
"Nc1ncccc1C(=O)NCCCCCCCCCCCCN1CCOCC1 [Compound 2, 2-Amino-N-(12-morpholin-4-yl-dodecyl)-nicotinamide]",stronger PDK1 inhibition,hair growth was confirmed,–,–,–,–,–,–,–,–,–,–
Nc1ncccc1C(=O)NCCCCCCCCCCCCF [Compound G015F],inhibitory effect on PDK1 phosphorylation,–,significantly lower,glomerular capillary loops were well maintained,"reduced the increased B cells, T cells, and macrophages",significantly lower,significantly lower,significantly lower,significantly reduced,significantly suppressed,–,–
Nc1ncccc1C(=O)NCCCCCCCCCCCCN1CCNCC1 [Compound G088],stronger PDK1 inhibition,hair growth was confirmed,–,–,–,–,–,–,significantly reduced,significantly suppressed,inhibited in a concentration-dependent manner,six times stronger
